Experiment: xn = mol fraction of the nth substance listed
Conditions: 100 kPa, Liquid; for viscosity: Falling or rolling sphere viscometry; for speed of sound: Frequency=3 MHz, Single path-length method; for mass density: Vibrating tube method

CCCCn1cc[n+](C)c1.O=S(=O)([O-])C(F)(F)F [1-butyl-3-methylimidazolium trifluoromethanesulfonate] + CN(C)C=O
Conditions	mass density, 298.15 K [kg/m3]	mass density, 303.15 K [kg/m3]	mass density, 308.15 K [kg/m3]	speed of sound, 298.15 K [m/s]	speed of sound, 303.15 K [m/s]	speed of sound, 308.15 K [m/s]	viscosity, 298.15 K [mPa·s]	viscosity, 303.15 K [mPa·s]	viscosity, 308.15 K [mPa·s]
x1 = 0.1087	1042.02	1037.25	1032.47	1449.2	1432.1	1415.2	1.8	1.67	1.55
x1 = 0.203	1099.89	1095.22	1090.53	1437.7	1421.9	1406	3.67	3.23	2.93
x1 = 0.2978	1142.86	1138.3	1133.72	1425.7	1410.9	1395.9	5.22	4.67	4.2
x1 = 0.409	1181.65	1177.22	1172.78	1415	1401.2	1387.2	8.68	7.62	6.73
x1 = 0.4969	1206.07	1201.73	1197.38	1409.2	1396	1382.9	13.24	11.4	9.92
x1 = 0.603	1230.69	1226.44	1222.2	1403	1390.5	1378.1	20.91	17.79	15.23
x1 = 0.699	1249.54	1245.37	1241.2	1399.1	1387	1375	32.59	27.14	22.89
x1 = 0.809	1268.59	1264.5	1260.4	1396.7	1384.8	1373.3	52.15	42.41	35.16
x1 = 0.8928	1281.63	1277.59	1273.54	1395	1383.5	1372.1	68.08	54.9	44.83
x1 = 1	1297.46	1293.46	1289.47	1393.2	1382.8	1371.7	82.38	66.69	52.86
